The values that follow come from ChEMBL document CHEMBL1201862, “PubChem BioAssay data set” (2004).

Some test systems named below: A549; HL-60; NCI-H522; SK-MEL-28; SK-MEL-2; UACC-257; HOP-62; OVCAR-8; RPMI-8226; A498; KM12; HCT-15; Malme-3M; U-251; UO-31; CAKI-1; SNB-75; OVCAR-5; OVCAR-4; SW-620.
Assay in all cases: NCI anticancer screen, dose series, 48 h

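Values below derive from 48-hour exposures of cells grown in 96-well plates, with endpoints linearly interpolated between the two concentrations bracketing the appropriate inhibition level. Here, GI50 denotes the concentration required for 50% inhibition of growth.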 Activity calls are given as the source filed them. No stated cut-off is given here; in the data, active = GI50 up to about 1.1 µM and inactive = higher.

For `COc1cc(C2c3cc4c(cc3[C@@H](Nc3cnc5ccccc5c3)C3COC(=O)[C@H]23)OCO4)cc(OC)c1O` (stereo partly specified), the GI50 in the experiment with A549 is < 0.01 µM (active); with HL-60, < 0.033 µM (active); with NCI-H522 it was 1.03 µM (active); in the experiment on SK-MEL-28, 1.14 µM (inactive); in the experiment on SK-MEL-2, 1.76 µM (inactive); in the experiment on UACC-257 it was 0.839 µM (active). Besides, the GI50 with HOP-62 is 0.128 µM (active); in the experiment on OVCAR-8, 0.346 µM (active); in the experiment on RPMI-8226, 0.159 µM (active); in the experiment with A498, 0.22 µM (active); in the experiment with KM12, 0.883 µM (active); with HCT-15, 0.148 µM. For the same compound, the GI50 with Malme-3M is 0.621 µM (active); in the experiment on U-251, 0.238 µM (active); in the experiment on UO-31, 0.275 µM (active); with CAKI-1 it was 0.129 µM (active); in the experiment with SNB-75 it was 0.478 µM (active); with OVCAR-5, 0.736 µM (active). Also, the results for the GI50 in the experiment with OVCAR-4 and in the experiment on SW-620 were 1.05 µM (active) and 0.296 µM (active), respectively.

With `C=C1C(=O)OC2C1CC1OC2C(C)CCC/C(C)=C\CCC1(C)O` (stereo unspecified), the GI50 is 29.7 µM (inactive) with A549; 5.61 µM (inactive) in the experiment with HL-60; 8.71 µM (inactive) in the experiment on NCI-H522; 16.4 µM (inactive) in the experiment with SK-MEL-28; 10.8 µM (inactive) in the experiment on SK-MEL-2; 22.6 µM (inactive) with UACC-257. Further, the GI50 is 32.2 µM (inactive) in the experiment with HOP-62; 9.46 µM (inactive) in the experiment on OVCAR-8; 7.6 µM (inactive) in the experiment with RPMI-8226; 19.9 µM (inactive) in the experiment with A498; 19.8 µM (inactive) in the experiment with KM12; 18.2 µM with HCT-15. Moreover, the GI50 with Malme-3M is 32.7 µM (inactive); with U-251, 41.3 µM (inactive); in the experiment with UO-31, 32.3 µM (inactive); with CAKI-1, 18.6 µM (inactive); in the experiment on SNB-75, 15.3 µM (inactive); with OVCAR-5 it was 69.2 µM (inactive). The figures for the GI50 in the experiment with OVCAR-4 and with SW-620 were 18.2 µM (inactive) and 10.9 µM (inactive), respectively.

For the compound `COc1ccc(C(=O)/C(Br)=C/C(=O)O)cc1`, the GI50 in the experiment on A549 was 40.2 µM (inactive); in the experiment on HL-60, 27.5 µM (inactive); with NCI-H522, 7 µM (inactive); in the experiment with SK-MEL-28, 23.3 µM (inactive); with SK-MEL-2, 9.48 µM (inactive); with UACC-257, 26.9 µM (inactive). Moreover, the GI50 is 17.4 µM (inactive) in the experiment with HOP-62; 21 µM (inactive) with OVCAR-8; 11.5 µM (inactive) in the experiment on RPMI-8226; 25.1 µM (inactive) in the experiment with A498; 14.7 µM (inactive) with KM12; 23.5 µM with HCT-15. Moreover, the GI50 in the experiment on Malme-3M was 14.8 µM (inactive); with U-251 it was 15.6 µM (inactive); in the experiment on UO-31, 37.2 µM (inactive); in the experiment on CAKI-1, 39.3 µM (inactive); in the experiment on SNB-75 it was 35.5 µM (inactive); in the experiment with OVCAR-5, 42.1 µM (inactive). The GI50 in the experiment with OVCAR-4 is 32.7 µM (inactive).

For the compound `CN(C)c1ccc(N2C(=S)SC(=N\c3ccccc3)/C2=N/c2ccccc2)cc1`, the GI50 in the experiment with HL-60, with NCI-H522, with SK-MEL-28, with SK-MEL-2, with HOP-62 and in the experiment on OVCAR-8 was > 100 µM (inactive) each time. Moreover, the GI50 in the experiment with RPMI-8226 was > 100 µM (inactive); in the experiment on A498, > 100 µM (inactive); in the experiment with KM12, > 100 µM (inactive); in the experiment on HCT-15, more than 100 µM; in the experiment on Malme-3M, > 100 µM (inactive); with U-251, > 100 µM (inactive). In addition, the GI50 in the experiment on UO-31, with CAKI-1, with SNB-75, in the experiment with OVCAR-5 and with OVCAR-4 was > 100 µM (inactive) in each case.
